Laboratory results: PMC8311653, “Design, Synthesis, In Vitro and In Vivo Characterization of Selective NKCC1 Inhibitors for the Treatment of Core Symptoms in Down Syndrome” (Journal of Medicinal Chemistry, 2021)
≈ marks a conversion by molar mass, not a printed value.

Assays:
NKCC1 = molecular target: T1, NKCC1 (Mus musculus, UniProt P55012); assay: Ca2+ influx assay in immature primary neuronal cultures (indirect measure of NKCC1 inhibition); type: cell-based; settings: cultured neurons, 3 DIV
T1 construct: primary neuronal cultures of dissociated hippocampal neurons were prepared from E18 C57BL/6J mice; endogenous in cells; host or cells: primary hippocampal neurons from E18 C57BL/6J mice, 3 DIV
T1 sequence (P55012 1-1205): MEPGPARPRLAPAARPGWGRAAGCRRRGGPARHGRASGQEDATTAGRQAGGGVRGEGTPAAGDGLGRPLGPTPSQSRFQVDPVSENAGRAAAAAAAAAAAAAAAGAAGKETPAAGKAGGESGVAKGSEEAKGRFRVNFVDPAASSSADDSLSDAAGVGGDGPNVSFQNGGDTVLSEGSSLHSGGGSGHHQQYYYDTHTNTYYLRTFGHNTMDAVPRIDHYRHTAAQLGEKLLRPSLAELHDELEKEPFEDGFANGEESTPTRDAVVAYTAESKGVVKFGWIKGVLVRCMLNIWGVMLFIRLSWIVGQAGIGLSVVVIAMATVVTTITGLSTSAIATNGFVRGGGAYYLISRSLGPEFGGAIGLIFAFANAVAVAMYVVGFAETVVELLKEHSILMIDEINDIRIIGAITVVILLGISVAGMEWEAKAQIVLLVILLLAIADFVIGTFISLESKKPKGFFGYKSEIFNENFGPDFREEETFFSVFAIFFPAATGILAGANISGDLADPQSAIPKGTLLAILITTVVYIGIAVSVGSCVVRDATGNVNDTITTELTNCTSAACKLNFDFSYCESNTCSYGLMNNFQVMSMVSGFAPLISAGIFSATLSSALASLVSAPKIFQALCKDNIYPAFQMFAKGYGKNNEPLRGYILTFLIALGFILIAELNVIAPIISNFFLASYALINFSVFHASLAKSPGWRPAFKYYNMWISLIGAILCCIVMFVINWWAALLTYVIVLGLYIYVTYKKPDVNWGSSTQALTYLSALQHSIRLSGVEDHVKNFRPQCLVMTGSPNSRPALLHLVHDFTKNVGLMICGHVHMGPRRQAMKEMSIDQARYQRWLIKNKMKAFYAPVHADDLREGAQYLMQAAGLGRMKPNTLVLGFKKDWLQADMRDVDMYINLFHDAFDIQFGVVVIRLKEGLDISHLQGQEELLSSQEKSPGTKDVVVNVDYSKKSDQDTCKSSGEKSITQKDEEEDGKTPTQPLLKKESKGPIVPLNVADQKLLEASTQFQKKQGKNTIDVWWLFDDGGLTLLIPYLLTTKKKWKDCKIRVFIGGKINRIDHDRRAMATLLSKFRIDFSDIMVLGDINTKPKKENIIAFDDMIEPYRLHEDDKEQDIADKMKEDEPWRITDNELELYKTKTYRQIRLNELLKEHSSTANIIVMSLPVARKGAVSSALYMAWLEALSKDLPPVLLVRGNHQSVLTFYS
Protocol: To perform the Ca^2+-influx assay, primary neuronal cultures of dissociated hippocampal neurons were prepared from E18 C57BL/6J mice (Charles River) as previously described[56] and plated in 96-well black-walled, clear-bottomed plates coated with poly-L-lysine (Sigma; 0.1 mg/mL in 100 mM borate buffer, pH 8.5) at a density of 30,000 cells per well. Neurons were maintained in neurobasal medium supplemented with 2% B-27 supplement, 0.5 mM glutamine, 50 U/mL of penicillin, and 50 μg/mL of streptomycin (all from Gibco). The cells were incubated at 37 °C and 5% CO2 until DIV 3 for the Ca^2+ influx assay.
At 3 DIVs, neurons were loaded with 2.5 μM of the Ca^2+-sensitive day Fluo4-AM (Invitrogen) in extracellular solution (145 mM NaCl, 5 mM KCl, 10 mM HEPES, 5.55 mM glucose, 1 mM MgCl2, and 2 mM CaCl2, pH 7.4). After 15 min, cells were washed twice with extracellular solutions and treated with bumetanide (as a positive control), DMSO (as a negative control), or each of our compounds at 10 μM or 100 μM, in extracellular solution for 15 min. Plates were then loaded onto a Spark (Tecan) multiplate reader equipped with an automatic liquid injector system, and Fluo4 fluorescence was recorded with excitation at 485 nm and emission at 535 nm. For each well, fluorescence was first recorded for 20 s of the baseline and for 20 s after delivery of GABA (100 μM). To evaluate neuronal viability, fluorescence was recorded for an additional 20 s after delivery of a depolarizing KCl stimulus (90 mM final concentration in wells). To represent the fluorescent traces in time, we normalized the fluorescence value for each time point to the average of the fluorescence value for the first 20 s of the baseline (ΔF/F0). To quantify the average effects as represented by the bar plots, we measured the maximum peak increase in ΔF/F0 fluorescence upon GABA application normalized over the maximum peak increase in ΔF/F0 fluorescence upon KCl application. We then presented in the figures all the data as a percentage of the fluorescence increase versus the value of the control DMSO.

[1] = Aqueous kinetic solubility in PBS pH 7.4; type: physicochemical; settings: phosphate buffered saline (PBS); aqueous kinetic solubility from 10 mM DMSO solution in PBS pH 7.4; target concentration 250 μM (final DMSO 2.5%)
Protocol: 1. Aqueous kinetic solubility.
30 µL aliquots of 10 mM DMSO stock solution of the test compound were incubated in Phosphate
Buffered Saline (PBS) at pH 7.4 at 25°C for 24h. After centrifugation the dissolved compound in the
supernatant was quantified by LC-MS/MS.
Aqueous kinetic solubility was determined by UV quantification at
215 nm. […]

[2] = In vitro metabolic stability in mouse liver microsomes; settings: tissue homogenate, pH 7.4
Protocol: 1. Aqueous kinetic solubility. […]
3. In vitro mouse microsomial stability. […]
microsomes (Sekisui Xenotech, LCC), 0.1M Tris-HCl buffer (pH 7.4), and 10% DMSO. The final […]
After pre-incubation, the cofactors (NADPH, G6P, G6PDH, MgCl2 pre-dissolved in 0.1M Tris-HCl) were added to the incubation mixture and the incubation was continued at 37 °C for 1h. At each time point (0, 5, 15, 30, 60 min), 30µL of incubation mixture was diluted with 200 µL cold acetonitile spiked with 200 nM of warfarin as internal standard, followed by centrifugation at 3500 g for 30 min. The supernatant was further diluted with H2O (1:1) for analysis.
An aliquot of 200 µl of the supernatant was removed, and the concentration of the test compound was […]
quantified by LC-MS/MS. The percentage of the test compound remaining at each time point relative […]
to t=0 was calculated. The half-lives (t½) were determined by a one-phase decay equation using a […]
non-linear regression of compound concentration vs time.

[3] = In vitro mouse plasma stability; type: in vitro ADME; settings: mouse plasma at 37 °C; incubated at 5 μM (final DMSO 0.1%); read-out: t1/2 plasma

Row | SMILES | inhibition at 10 µM (NKCC1) | solubility at 24 h [1] | half-life at 5 μM [2] | half-life at 5 μM [3] | inhibition at 100 µM (NKCC1; 100 μM) | Inhibition 100 μM Ca2+ influx (%) (NKCC1; 100 μM)
1 | CN(C)S(=O)(=O)c1cc(C(=O)O)c(OC2CCCC2)cc1NCCCCCCCC(F)(F)F [Compound 43, 2-(Cyclopentyloxy)-5-(N,N-dimethylsulfamoyl)-4-((8,8,8-trifluorooctyl)amino)benzoic Acid] | 27.4 ± 7% | 11 µM (≈ 5.44 µg/mL) | 0.55 h | > 2 h | – | –
2 | O=C(O)c1ccc(NCCCCCCCC(F)(F)F)c(S(=O)(=O)N2CCCC2)c1 [Compound 33, 3-Pyrrolidin-1-ylsulfonyl-4-(8,8,8-trifluorooctylamino)benzoic Acid] | 31.7 ± 4.1% | 66 µM (≈ 28.8 µg/mL) | > 1 h | > 2 h | 50.9 ± 6.7% | –
3 | O=C(O)c1ccc(NCCCCCCCC(F)(F)F)c(S(=O)(=O)N2CCOCC2)c1 [Compound 35, 3-Morpholinosulfonyl-4-(8,8,8-trifluorooctylamino)benzoic Acid] | 16.5 ± 2.7% | 244 µM (≈ 110 µg/mL) | > 1 h | > 2 h | 67.8 ± 2.8% | 67.7 ± 2.8%
4 | CNS(=O)(=O)c1cc(C(=O)O)ccc1NCCCCCCCC(F)(F)F [Compound 32, 3-(-N,N-Methylsulfamoyl)-4-(8,8,8-trifluorooctylamino)benzoic Acid] | 9.3 ± 1.9% | 242 µM (≈ 95.9 µg/mL) | > 1 h | > 2 h | 40.4 ± 4.8% | –
5 | O=C(O)c1ccc(NCCCCCCCC(F)(F)F)c(S(=O)(=O)NC2CCCCC2)c1 [Compound 37, 3-(-N-Cyclohexylsulfamoyl)-4-(8,8,8-trifluorooctylamino)benzoic Acid] | 49.5 ± 4.5% | 9 µM (≈ 4.18 µg/mL) | > 1 h | > 2 h | – | –
6 | CN(C)S(=O)(=O)c1cc(C(=O)O)c(Cl)cc1NCCCCCCCC(F)(F)F [Compound 39, 2-Chloro-5-(N,N-dimethylsulfamoyl)-4-((8,8,8-trifluorooctyl)amino)benzoic Acid] | 19.4 ± 2.8% | 241 µM (≈ 107 µg/mL) | > 1 h | > 2 h | 59.6 ± 3.1% | –
7 | O=C(O)c1ccc(NCCCCCCCC(F)(F)F)c(S(=O)(=O)NC2CCOCC2)c1 [Compound 38, 3-(N-(Tetrahydro-2H-pyran-4-yl)sulfamoyl)-4-((8,8,8-trifluorooctyl)amino)benzoic Acid] | 7.1 ± 2.2% | 244 µM (≈ 114 µg/mL) | > 1 h | > 2 h | 36.2 ± 3.4% | –
8 | O=C(O)c1ccc(NCCCCCCCC(F)(F)F)c(S(=O)(=O)NC2CCCC2)c1 [Compound 36, 3-(-N-Cyclopentylsulfamoyl)-4-(8,8,8-trifluorooctylamino)benzoic Acid] | 45.3 ± 5.3% | 223 µM (≈ 100 µg/mL) | > 1 h | > 2 h | – | –
9 | CCOc1cc(NCCCCCCCC(F)(F)F)c(S(=O)(=O)N(C)C)cc1C(=O)O [Compound 42, 5-(N,N-Dimethylsulfamoyl)-2-ethoxy-4-((8,8,8-trifluorooctyl)amino)benzoic Acid] | 13.4 ± 1.1% | 43 µM (≈ 19.5 µg/mL) | > 1 h | > 2 h | 46.6 ± 3.8% | –
10 | O=C(O)c1ccc(NCCCCCCCC(F)(F)F)c(S(=O)(=O)N2CCCCC2)c1 [Compound 34, 3-(1-Piperidylsulfonyl)-4-(8,8,8-trifluorooctylamino)benzoic Acid] | 49.2 ± 4.5% | 13 µM (≈ 5.86 µg/mL) | > 1 h | > 2 h | – | –
11 | COc1cc(NCCCCCCCC(F)(F)F)c(S(=O)(=O)N(C)C)cc1C(=O)O [Compound 41, 5-(N,N-Dimethylsulfamoyl)-2-methoxy-4-((8,8,8-trifluorooctyl)amino)benzoic Acid] | 14.2 ± 2% | 188 µM (≈ 82.8 µg/mL) | > 1 h | > 2 h | 45.7 ± 4.5% | –
